Data reported in US20130203659A1 (priority 2006, published 2013).
Like-named read-outs stand apart in the source and are kept apart here. Positions of bridges follow the written chain, without caps; N, C: chain ends. Residues, ends and D or L forms follow the SMILES beside them. No end group written: not given here. branched PEG 40 kDa = branched polyethylene glycol of 40 kDa

Key:
human GLP-1 receptor [1] = target: T1, human GLP-1 receptor (Homo sapiens, UniProt P43220); experiment: GLP-1R reporter assay (cAMP-regulated luciferase, CHOK1 cells), human receptor; assay type: cell-based
T1 construct: expressed in transfected cells; host or cells: CHOK1 cells with a cAMP-regulated luciferase reporter construct
T1 sequence (P43220 24-463): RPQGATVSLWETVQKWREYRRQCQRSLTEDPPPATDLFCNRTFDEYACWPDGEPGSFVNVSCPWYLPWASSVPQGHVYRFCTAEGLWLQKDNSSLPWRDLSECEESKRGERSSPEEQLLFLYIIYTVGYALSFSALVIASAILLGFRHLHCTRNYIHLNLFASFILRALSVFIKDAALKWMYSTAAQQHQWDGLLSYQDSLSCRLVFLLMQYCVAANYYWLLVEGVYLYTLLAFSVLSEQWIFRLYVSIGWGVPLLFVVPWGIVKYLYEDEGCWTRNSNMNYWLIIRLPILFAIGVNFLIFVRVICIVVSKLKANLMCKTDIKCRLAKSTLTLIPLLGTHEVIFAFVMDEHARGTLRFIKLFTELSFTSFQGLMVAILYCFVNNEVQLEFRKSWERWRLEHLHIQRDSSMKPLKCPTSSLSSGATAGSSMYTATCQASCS
Procedure: (§1) A. GLP-1R Reporter Assay:
(§2) Increased cAMP levels were measured through enhanced expression of a luciferase reporter gene. […] The evening prior to assay, the cells were washed, the medium replaced with serum-free medium containing 0.5% protease-free bovine serum albumin (BSA), and then cultured overnight. […] Cell lysates were assayed for luciferase activity using the Luciferase Assay System (Promega Corporation, Madison, Wis.). Luciferase activity was measured using a Luminoskan Ascent (Thermo Electron Corporation, Marietta, Ohio). Nonlinear regression analyses of resultant compound concentration curves were performed using GraphPad Prism (GraphPad Software, Inc., San Diego, Calif.).

human GLP-1 receptor [2] = target: T1, human GLP-1 receptor; experiment: In vitro GLP-1 receptor binding (125I-GLP-1 ligand binding assay), human receptor
Procedure: Cells were sedimented at 1500 rpm for 10 minutes. The resulting pellets were homogenized in 15 mls of ice cold sucrose buffer (25 mM Tris-HCl, 0.32 M Sucrose, 0.25 g/L sodium azide, pH 7.4) with a motorized, glass fitted, Teflon homogenizer. The homogenate was centrifuged at 48,000×g at 4° C. for 10 minutes, resuspended in 25 ml assay buffer (50 mM Tris-HCl, 5 mM MgCl2, 10 mg/ml protease-free BSA, 0.1 mg/ml STI, and 0.1 mg/ml Pefabloc, pH 7.4) with a Tissue-Tearor (Biospec Products), then centrifuged again at 48,000×g for 10 minutes. The pellets were homogenized for a third time in 15 ml assay buffer using the Tissue-Tearor and again centrifuged at 48,000×g for 10 minutes. The resulting pellet was resuspended in assay buffer at a wet weight concentration of 4 mg/ml.
Binding assays were performed in 96-well U-bottom plates. […] Bound radioactivity was determined using a TopCount microplate scintillation and luminescence counter (Packard Instrument Company, PerkinElmer, Shelton, Conn.). Nonlinear regression analyses of resulting concentration curves were performed using GraphPad Prism (GraphPad Software, Inc., San Diego, Calif.).

mouse GLP-1 receptor = target: T2, mouse GLP-1 receptor (Mus musculus, UniProt O35659); experiment: GLP-1R reporter assay (cAMP-regulated luciferase, CHOK1 cells), mouse receptor; assay type: cell-based; conditions: 6 hours exposure
T2 construct: expressed in transfected cells; host or cells: CHOK1 cells with a cAMP-regulated luciferase reporter construct
T2 sequence (O35659 22-463): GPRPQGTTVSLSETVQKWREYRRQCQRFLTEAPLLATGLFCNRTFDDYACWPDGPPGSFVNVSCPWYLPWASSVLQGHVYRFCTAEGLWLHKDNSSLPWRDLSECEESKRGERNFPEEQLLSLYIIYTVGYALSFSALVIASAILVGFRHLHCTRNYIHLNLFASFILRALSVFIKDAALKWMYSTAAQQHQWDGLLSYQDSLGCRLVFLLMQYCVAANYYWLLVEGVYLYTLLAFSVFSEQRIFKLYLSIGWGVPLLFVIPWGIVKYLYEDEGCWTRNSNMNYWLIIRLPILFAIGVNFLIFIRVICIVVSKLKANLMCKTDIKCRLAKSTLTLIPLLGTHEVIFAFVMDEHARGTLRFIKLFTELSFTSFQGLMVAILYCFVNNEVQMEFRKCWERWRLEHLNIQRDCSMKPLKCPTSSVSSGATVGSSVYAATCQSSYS
Procedure: as §1, §2

[3] = luciferase reporter, 6 hours exposure, read-out: EC50 human
[4] = membranes of CHOK1 cells expressing human GLP-1 receptor, 0.2 nM 125I-GLP-1

Compound | EC50 (human GLP-1 receptor [1]; [3]) [nM] | IC50 (human GLP-1 receptor [2]; [4]) [nM] | EC50 (mouse GLP-1 receptor) [nM] | further results
cgGLP-13: SEQ ID NO: 8 + 20k PEG monomer (HGEGTFTSDVSSYLEGC(PEG 20 kDa)AAKEFIAWLKNGGPSSGAPPPS) | 1 | > 1000 |  | 
CC[C@H](C)[C@H](NC(=O)[C@H](Cc1ccccc1)NC(=O)[C@H](CCC(=O)O)NC(=O)[C@H](CCCCN)NC(=O)[C@H](C)NC(=O)[C@H](C)NC(=O)[C@H](CCC(N)=O)NC(=O)CNC(=O)[C@H](CCC(=O)O)NC(=O)[C@H](CC(C)C)NC(=O)[C@H](Cc1ccc(O)cc1)NC(=O)[C@H](CO)NC(=O)[C@H](CO)NC(=O)[C@@H](NC(=O)[C@H](CC(=O)O)NC(=O)[C@H](CO)NC(=O)[C@@H](NC(=O)[C@H](Cc1ccccc1)NC(=O)[C@@H](NC(=O)CNC(=O)[C@H](CCC(=O)O)NC(=O)[C@H](C)NC(=O)[C@H](Cc1c[nH]cn1)NC(=O)[C@H](CCC(=O)O)NC(=O)[C@@H](N)CCSC)[C@@H](C)O)[C@@H](C)O)C(C)C)C(=O)N[C@@H](C)C(=O)N[C@@H](Cc1c[nH]c2ccccc12)C(=O)N[C@@H](CC(C)C)C(=O)N[C@H](C(=O)N[C@@H](CCCCN)C(=O)NCC(=O)N[C@@H](CCCNC(=N)N)C(=O)O)C(C)C [ME-GLP1, ME HAEGTFTSDVSSYLEGQAAKEFIAWLVKGR] | 1 |  | 4 | 
CC[C@H](C)[C@H](NC(=O)[C@H](Cc1ccccc1)NC(=O)[C@H](CCC(=O)O)NC(=O)[C@@H]1CCC(=O)NCCCC[C@H](NC(=O)[C@H](CCC(=O)O)NC(=O)[C@H](CC(C)C)NC(=O)[C@H](Cc2ccc(O)cc2)NC(=O)[C@H](CO)NC(=O)[C@H](CO)NC(=O)[C@@H](NC(=O)[C@H](CC(=O)O)NC(=O)[C@H](CO)NC(=O)[C@@H](NC(=O)[C@H](Cc2ccccc2)NC(=O)[C@@H](NC(=O)CNC(=O)[C@H](CCC(=O)O)NC(=O)CNC(=O)[C@@H](N)Cc2c[nH]cn2)[C@@H](C)O)[C@@H](C)O)C(C)C)C(=O)N[C@@H](CCC(N)=O)C(=O)N[C@@H](C)C(=O)N[C@@H](C)C(=O)N1)C(=O)N[C@@H](C)C(=O)N[C@@H](Cc1c[nH]c2ccccc12)C(=O)N[C@@H](CC(C)C)C(=O)N[C@H](C(=O)N[C@@H](CCCCN)C(=O)NCC(=O)N[C@@H](CCCNC(=N)N)C(=O)NCC(N)=O)C(C)C [GLP1(7-37) cyclo[Lys16-Glu20], HGEGTFTSDVSSYLEKQAAEEFIAWLVKGRG AMIDE] (H-HGEGTFTSDVSSYLEKQAAEEFIAWLVKGRG-NH2; lactam 16-20) |  |  |  | EC50 (human GLP-1 receptor [1]): 0.016 nM
CC[C@H](C)[C@H](NC(=O)[C@H](Cc1ccccc1)NC(=O)[C@H](CCC(=O)O)NC(=O)[C@H](CCCCN)NC(=O)[C@H](C)NC(=O)[C@H](C)NC(=O)[C@H](CCC(N)=O)NC(=O)CNC(=O)[C@H](CCC(=O)O)NC(=O)[C@H](CC(C)C)NC(=O)[C@H](Cc1ccc(O)cc1)NC(=O)[C@H](CO)NC(=O)[C@H](CO)NC(=O)[C@@H](NC(=O)[C@H](CC(=O)O)NC(=O)[C@H](CO)NC(=O)[C@@H](NC(=O)[C@H](Cc1ccccc1)NC(=O)[C@@H](NC(=O)CNC(=O)[C@H](CCC(=O)O)NC(=O)[C@H](C)NC(=O)[C@H](Cc1c[nH]cn1)NC(=O)[C@H](Cc1c[nH]cn1)NC(=O)[C@@H](N)CCSC)[C@@H](C)O)[C@@H](C)O)C(C)C)C(=O)N[C@@H](C)C(=O)N[C@@H](Cc1c[nH]c2ccccc12)C(=O)N[C@@H](CC(C)C)C(=O)N[C@H](C(=O)N[C@@H](CCCCN)C(=O)NCC(=O)N[C@@H](CCCNC(=N)N)C(=O)O)C(C)C [MH-GLP1, MH HAEGTFTSDVSSYLEGQAAKEFIAWLVKGR] |  |  |  | IC50 (human GLP-1 receptor [2]): 350 nM

More lines, main results first:

EC50 (human GLP-1 receptor [1]; [3]) [nM] | IC50 (human GLP-1 receptor [2]; [4]) [nM] | EC50 (mouse GLP-1 receptor) [nM] | Compound | further results
0.5 |  | 3 | CC[C@H](C)[C@H](NC(=O)[C@H](Cc1ccccc1)NC(=O)[C@H](CCC(=O)O)NC(=O)[C@H](CCCCN)NC(=O)[C@H](C)NC(=O)[C@H](C)NC(=O)[C@H](CCC(N)=O)NC(=O)CNC(=O)[C@H](CCC(=O)O)NC(=O)[C@H](CC(C)C)NC(=O)[C@H](Cc1ccc(O)cc1)NC(=O)[C@H](CO)NC(=O)[C@H](CO)NC(=O)[C@@H](NC(=O)[C@H](CC(=O)O)NC(=O)[C@H](CO)NC(=O)[C@@H](NC(=O)[C@H](Cc1ccccc1)NC(=O)[C@@H](NC(=O)CNC(=O)[C@H](CCC(=O)O)NC(=O)[C@H](C)NC(=O)[C@H](Cc1c[nH]cn1)NC(=O)[C@H](CCSC)NC(=O)[C@@H](N)CCSC)[C@@H](C)O)[C@@H](C)O)C(C)C)C(=O)N[C@@H](C)C(=O)N[C@@H](Cc1c[nH]c2ccccc12)C(=O)N[C@@H](CC(C)C)C(=O)N[C@H](C(=O)N[C@@H](CCCCN)C(=O)NCC(=O)N[C@@H](CCCNC(=N)N)C(=O)O)C(C)C [MM-GLP1, MM HAEGTFTSDVSSYLEGQAAKEFIAWLVKGR] | IC50 (human GLP-1 receptor [2]): 100 nM
0.8 |  | 5 | CC[C@H](C)[C@H](NC(=O)[C@H](Cc1ccccc1)NC(=O)[C@H](CCC(=O)O)NC(=O)[C@H](CCCCN)NC(=O)[C@H](C)NC(=O)[C@H](C)NC(=O)[C@H](CCC(N)=O)NC(=O)CNC(=O)[C@H](CCC(=O)O)NC(=O)[C@H](CC(C)C)NC(=O)[C@H](Cc1ccc(O)cc1)NC(=O)[C@H](CO)NC(=O)[C@H](CO)NC(=O)[C@@H](NC(=O)[C@H](CC(=O)O)NC(=O)[C@H](CO)NC(=O)[C@@H](NC(=O)[C@H](Cc1ccccc1)NC(=O)[C@@H](NC(=O)CNC(=O)[C@H](CCC(=O)O)NC(=O)[C@H](C)NC(=O)[C@H](Cc1c[nH]cn1)NC(=O)[C@H](Cc1c[nH]c2ccccc12)NC(=O)[C@@H](N)CCSC)[C@@H](C)O)[C@@H](C)O)C(C)C)C(=O)N[C@@H](C)C(=O)N[C@@H](Cc1c[nH]c2ccccc12)C(=O)N[C@@H](CC(C)C)C(=O)N[C@H](C(=O)N[C@@H](CCCCN)C(=O)NCC(=O)N[C@@H](CCCNC(=N)N)C(=O)O)C(C)C [MW-GLP1, MW HAEGTFTSDVSSYLEGQAAKEFIAWLVKGR] | 
4 |  |  | CC[C@H](C)[C@H](NC(=O)[C@H](Cc1ccccc1)NC(=O)[C@H](CCC(=O)O)NC(=O)[C@H](CCCCN)NC(=O)[C@H](C)NC(=O)[C@H](C)NC(=O)[C@H](CCC(N)=O)NC(=O)CNC(=O)[C@H](CCC(=O)O)NC(=O)[C@H](CC(C)C)NC(=O)[C@H](Cc1ccc(O)cc1)NC(=O)[C@H](CO)NC(=O)[C@H](CO)NC(=O)[C@@H](NC(=O)[C@H](CC(=O)O)NC(=O)[C@H](CO)NC(=O)[C@@H](NC(=O)[C@H](Cc1ccccc1)NC(=O)[C@@H](NC(=O)CNC(=O)[C@H](CCC(=O)O)NC(=O)[C@H](C)NC(=O)[C@H](Cc1c[nH]cn1)NC(=O)[C@H](CCCCN)NC(=O)[C@@H](N)CCSC)[C@@H](C)O)[C@@H](C)O)C(C)C)C(=O)N[C@@H](C)C(=O)N[C@@H](Cc1c[nH]c2ccccc12)C(=O)N[C@@H](CC(C)C)C(=O)N[C@H](C(=O)N[C@@H](CCCCN)C(=O)NCC(=O)N[C@@H](CCCNC(=N)N)C(=O)O)C(C)C [MK-GLP1, MK HAEGTFTSDVSSYLEGQAAKEFIAWLVKGR] | 
0.5 |  | 3 | CC[C@H](C)[C@H](NC(=O)[C@H](Cc1ccccc1)NC(=O)[C@H](CCC(=O)O)NC(=O)[C@H](CCCCN)NC(=O)[C@H](C)NC(=O)[C@H](C)NC(=O)[C@H](CCC(N)=O)NC(=O)CNC(=O)[C@H](CCC(=O)O)NC(=O)[C@H](CC(C)C)NC(=O)[C@H](Cc1ccc(O)cc1)NC(=O)[C@H](CO)NC(=O)[C@H](CO)NC(=O)[C@@H](NC(=O)[C@H](CC(=O)O)NC(=O)[C@H](CO)NC(=O)[C@@H](NC(=O)[C@H](Cc1ccccc1)NC(=O)[C@@H](NC(=O)CNC(=O)[C@H](CCC(=O)O)NC(=O)[C@H](C)NC(=O)[C@H](Cc1c[nH]cn1)NC(=O)[C@H](CCC(N)=O)NC(=O)[C@@H](N)CCSC)[C@@H](C)O)[C@@H](C)O)C(C)C)C(=O)N[C@@H](C)C(=O)N[C@@H](Cc1c[nH]c2ccccc12)C(=O)N[C@@H](CC(C)C)C(=O)N[C@H](C(=O)N[C@@H](CCCCN)C(=O)NCC(=O)N[C@@H](CCCNC(=N)N)C(=O)O)C(C)C [MQ-GLP1, MQ HAEGTFTSDVSSYLEGQAAKEFIAWLVKGR] | 
0.7 | > 1000 |  | cgGLP-2: SEQ ID NO: 6 + 40k branched PEG (HGEGTFTSDVSSYLEGC(branched PEG 40 kDa)AAKEFIAWLVKGRG) | 
12 | > 1000 |  | cgGLP-1: SEQ ID NO: 6 + 20K PEG (HGEGTFTSDVSSYLEGC(PEG 20 kDa)AAKEFIAWLVKGRG) | 
 | > 1000 |  | cgGLP-7: SEQ ID NO: 6 + 30k PEG (HGEGTFTSDVSSYLEGC(PEG 30 kDa)AAKEFIAWLVKGRG) | 
